The test system of data set [1] is human breast cancer cells (MCF-7). The data set can be described thus: Antiproliferative activity / cytotoxicity by sulforhodamine B assay in MCF-7 cells. Type of data set: cell-based. As to conditions: for IC50: MCF7, MCF-7 human breast cancer cells, 24 hours exposure, sulforhodamine B assay, triplicate. The method, then: (§1) The ligands and corresponding metal complexes were investigated for their cytotoxicity against MCF-7 (breast cancer) cells and MCF-10A (normal human breast) cells. Cells were cultured in 96-well culture plates and exposed to 12.5 μg ml^−1, 25 μg ml^−1, 50 μg ml^−1 and 100 μg ml^−1 concentrations of ligands and complexes for 24 hours and cytotoxicity was assessed by sulforhodamine B assay. All exposures were carried out in triplicate. Briefly, the cell supernatant was completely removed and washed with phosphate buffer solution. Trichloroacetic acid (50%, […]) was added on top of fetal bovine serum-free fresh medium (200 μl) to make final concentration of 10% trichloroacetic acid and was incubated at 4 °C for one hour prior to the SRB assay. The plates were then washed with five washing cycles with water and dried completely. An aliquot of 100 μl of 0.4% sulforhodamine B dissolved in 1% trichloroacetic acid, was added to each well, and was allowed to stain for 15 minutes. The plates were again washed with five washing cycles to remove unbound dye using 1% (vol/vol) acetic acid after removing the stain. The protein bound dye was solubilized with trisbase (10 mM, pH 7.5, 200 μl), after air drying. The plates were then shaken for 60 minutes to homogenize the dye solution. The absorbance was then measured at 540 nm using Synergy HTBioTek microplate reader. The percentage viability was calculated by the equation given below.1 [drawing 1]
(§2) Three ligands and three novel complexes were assayed for their antiproliferative activity in human breast cancer cells (MCF-7) and normal human breast cells (MCF-10A). In this study, the cell lines were exposed to synthesized compounds in a concentration gradient up to […] and the half maximal inhibitory concentration (IC50) was determined for each compound. Cytotoxicity was measured with sulforhodamine B assay.
(In SRB staining, fixed cells bind dye roughly in proportion to their protein.)

The test system of data set [2] is normal human breast cells (MCF-10A). The data set can be described thus: Antiproliferative activity / cytotoxicity by sulforhodamine B assay in MCF-10A cells. Type of data set: cell-based. As to conditions: MCF-10A normal human breast cells, 24 hours exposure, triplicate. The method, then:
as §1, §2

The structures appear in SMILES notation.

Broadly, the IC50 is the midpoint of a concentration-inhibition curve. `O=S(=O)(c1cccc2ccccc12)N(Cc1ccccn1)Cc1ccccn1` [N(SO2(1-nap))dpa]: the “shape of cytotoxicity curve” value in data set [1] (Fig. S3, IC50 graphs against MCF-7) is “biphasic cytotoxicity curve”. Further, the half-maximal inhibitory concentration (IC50) in data set [1] turned out to be 92 ± 0.06 µM; in data set [2], 1583 ± 0.04 µM.

As to `O=S(=O)(c1ccc2ccccc2c1)N(Cc1ccccn1)Cc1ccccn1` [N(SO2(2-nap))dpa], the IC50 in data set [1] came to 18.1 ± 0.1 µM; in data set [2] it was 581 ± 0.04 µM.

Take `O=S(=O)(N1CCCCC1)N(Cc1ccccn1)Cc1ccccn1` [N(SO2pip)dpa]: the IC50 is 21.2 ± 0.1 µM in data set [1] and 948.5 ± 0.04 µM in data set [2].
